Experimental data from publication PMC12090182, “Repurposing of the RIPK1-Selective Benzo[1,4]oxazepin-4-one Scaffold for the Development of a Type III LIMK1/2 Inhibitor” (ACS Chemical Biology, 2025).

Legend:
Test in all cases: scanMAX KINOMEscan (Eurofins)
Assay type in all cases: binding
AMPK-alpha2 = AMPK-alpha2 (Homo sapiens, UniProt P54646); details: read-out: Percent Control
Description: (§1) Supplement cb5c00097_si_002.xlsx, sheet "Table S6 (Eurofins Selectivity)" | column: Percent Control

PIK3CD = PIK3CD (Homo sapiens, UniProt O00329); details: 1000 nM, read-out: Percent Control
Description: as §1

BRAF = BRAF (Homo sapiens, UniProt P15056); details: 1000 nM, read-out: Percent Control
Description: as §1

BUB1 = BUB1 (Homo sapiens, UniProt O43683); details: 1000 nM, read-out: Percent Control
Description: as §1

FGFR4 = FGFR4 (Homo sapiens, UniProt P22455); details: 1000 nM, read-out: Percent Control
Description: as §1

BMX = BMX (Homo sapiens, UniProt P51813); details: read-out: Percent Control
Description: as §1

AKT2 = AKT2 (Homo sapiens, UniProt P31751); details: read-out: Percent Control
Description: as §1

MYLK2 = MYLK2 (Homo sapiens, UniProt Q9H1R3); details: 1000 nM, read-out: Percent Control
Description: as §1

TNNI3K = TNNI3K (Homo sapiens, UniProt Q59H18); details: 1000 nM, read-out: Percent Control
Description: as §1

ULK2 = ULK2 (Homo sapiens, UniProt Q8IYT8); details: compound concentration 100 nM; Entrez ULK2; read-out: Percent Control
Description: as §1

ERBB3 = ERBB3 (Homo sapiens, UniProt P21860); details: 1000 nM, read-out: Percent Control
Description: as §1

RIOK1 = RIOK1 (Homo sapiens, UniProt Q9BRS2); details: 1000 nM, read-out: Percent Control
Description: as §1

DMPK2 = DMPK2 (Homo sapiens, UniProt Q6DT37); details: read-out: Percent Control
Description: as §1

ZAP70 = ZAP70 (Homo sapiens, UniProt P43403); details: compound concentration 100 nM; Entrez ZAP70; read-out: Percent Control
Description: as §1

EPHA1 = EPHA1 (Homo sapiens, UniProt P21709); details: 1000 nM, read-out: Percent Control
Description: as §1

[1] = target: JAK3(JH1domain-catalytic) (Homo sapiens, UniProt P52333); details: 1000 nM, read-out: Percent Control
Description: as §1

ROCK2 = ROCK2 (Homo sapiens, UniProt O75116); details: 1000 nM, read-out: Percent Control
Description: as §1

TAOK2 = TAOK2 (Homo sapiens, UniProt Q9UL54); details: 1000 nM, read-out: Percent Control
Description: as §1

IKK-alpha = IKK-alpha (Homo sapiens, UniProt O15111); details: read-out: Percent Control
Description: as §1

ADCK4 = ADCK4 (Homo sapiens, UniProt Q96D53); details: 1000 nM, read-out: Percent Control
Description: as §1

AAK1 = AAK1 (Homo sapiens, UniProt Q2M2I8); details: 1000 nM, read-out: Percent Control
Description: as §1

SGK2 = SGK2 (Homo sapiens, UniProt Q9HBY8); details: 1000 nM, read-out: Percent Control
Description: as §1

PKN2 = PKN2 (Homo sapiens, UniProt Q16513); details: compound concentration 100 nM; Entrez PKN2; read-out: Percent Control
Description: as §1

LYN = LYN (Homo sapiens, UniProt P07948); details: 1000 nM, read-out: Percent Control
Description: as §1

EPHB3 = EPHB3 (Homo sapiens, UniProt P54753); details: read-out: Percent Control
Description: as §1

PAK3 = PAK3 (Homo sapiens, UniProt O75914); details: 1000 nM, read-out: Percent Control
Description: as §1

MAST1 = MAST1 (Homo sapiens, UniProt Q9Y2H9); details: 1000 nM, read-out: Percent Control
Description: as §1

PFTAIRE2 = PFTAIRE2 (Homo sapiens, UniProt Q96Q40); details: 1000 nM, read-out: Percent Control
Description: as §1

VEGFR2 = VEGFR2 (Homo sapiens, UniProt P35968); details: 1000 nM, read-out: Percent Control
Description: as §1

YANK1 = YANK1 (Homo sapiens, UniProt Q8WU08); details: 1000 nM, read-out: Percent Control
Description: as §1

CSNK1G1 = CSNK1G1 (Homo sapiens, UniProt Q9HCP0); details: 1000 nM, read-out: Percent Control
Description: as §1

ACVR1B = ACVR1B (Homo sapiens, UniProt P36896); details: 1000 nM, read-out: Percent Control
Description: as §1

NEK6 = NEK6 (Homo sapiens, UniProt Q9HC98); details: compound concentration 100 nM; Entrez NEK6; read-out: Percent Control
Description: as §1

MLK2 = MLK2 (Homo sapiens, UniProt Q02779); details: 1000 nM, read-out: Percent Control
Description: as §1

ERK2 = ERK2 (Homo sapiens, UniProt P28482); details: 1000 nM, read-out: Percent Control
Description: as §1

RET = RET (Homo sapiens, UniProt P07949); details: compound concentration 100 nM; Entrez RET; read-out: Percent Control
Description: as §1

MYO3A = MYO3A (Homo sapiens, UniProt Q8NEV4); details: 1000 nM, read-out: Percent Control
Description: as §1

RIOK2 = RIOK2 (Homo sapiens, UniProt Q9BVS4); details: compound concentration 100 nM; Entrez RIOK2; read-out: Percent Control
Description: as §1

EPHB3, sequence (P54753 34-998): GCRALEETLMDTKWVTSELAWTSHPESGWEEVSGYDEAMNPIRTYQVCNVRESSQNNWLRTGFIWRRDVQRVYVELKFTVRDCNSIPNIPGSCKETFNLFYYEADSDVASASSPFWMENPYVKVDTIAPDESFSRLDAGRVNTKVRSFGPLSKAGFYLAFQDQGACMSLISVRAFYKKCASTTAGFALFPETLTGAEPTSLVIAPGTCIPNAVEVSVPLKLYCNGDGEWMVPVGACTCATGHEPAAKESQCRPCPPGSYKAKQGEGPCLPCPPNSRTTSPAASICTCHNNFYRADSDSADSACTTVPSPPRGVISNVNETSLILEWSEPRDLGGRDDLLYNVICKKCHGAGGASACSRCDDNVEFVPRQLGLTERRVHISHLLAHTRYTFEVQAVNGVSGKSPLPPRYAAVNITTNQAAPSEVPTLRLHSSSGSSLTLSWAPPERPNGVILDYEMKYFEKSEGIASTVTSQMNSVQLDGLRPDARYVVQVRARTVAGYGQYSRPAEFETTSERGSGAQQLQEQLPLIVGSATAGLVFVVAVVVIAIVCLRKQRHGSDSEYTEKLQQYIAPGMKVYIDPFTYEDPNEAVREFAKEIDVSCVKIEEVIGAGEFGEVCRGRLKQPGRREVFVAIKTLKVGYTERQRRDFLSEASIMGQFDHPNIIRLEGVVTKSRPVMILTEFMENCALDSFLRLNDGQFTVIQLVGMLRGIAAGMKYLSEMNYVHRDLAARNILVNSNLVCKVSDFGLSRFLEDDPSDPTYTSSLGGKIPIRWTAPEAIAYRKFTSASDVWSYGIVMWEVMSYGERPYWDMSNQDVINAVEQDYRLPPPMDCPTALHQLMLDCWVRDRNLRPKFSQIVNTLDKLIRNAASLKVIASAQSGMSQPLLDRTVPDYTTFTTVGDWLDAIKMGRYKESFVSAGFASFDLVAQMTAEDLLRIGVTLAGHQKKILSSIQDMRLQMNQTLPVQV
IKK-alpha, sequence (O15111 whole entry): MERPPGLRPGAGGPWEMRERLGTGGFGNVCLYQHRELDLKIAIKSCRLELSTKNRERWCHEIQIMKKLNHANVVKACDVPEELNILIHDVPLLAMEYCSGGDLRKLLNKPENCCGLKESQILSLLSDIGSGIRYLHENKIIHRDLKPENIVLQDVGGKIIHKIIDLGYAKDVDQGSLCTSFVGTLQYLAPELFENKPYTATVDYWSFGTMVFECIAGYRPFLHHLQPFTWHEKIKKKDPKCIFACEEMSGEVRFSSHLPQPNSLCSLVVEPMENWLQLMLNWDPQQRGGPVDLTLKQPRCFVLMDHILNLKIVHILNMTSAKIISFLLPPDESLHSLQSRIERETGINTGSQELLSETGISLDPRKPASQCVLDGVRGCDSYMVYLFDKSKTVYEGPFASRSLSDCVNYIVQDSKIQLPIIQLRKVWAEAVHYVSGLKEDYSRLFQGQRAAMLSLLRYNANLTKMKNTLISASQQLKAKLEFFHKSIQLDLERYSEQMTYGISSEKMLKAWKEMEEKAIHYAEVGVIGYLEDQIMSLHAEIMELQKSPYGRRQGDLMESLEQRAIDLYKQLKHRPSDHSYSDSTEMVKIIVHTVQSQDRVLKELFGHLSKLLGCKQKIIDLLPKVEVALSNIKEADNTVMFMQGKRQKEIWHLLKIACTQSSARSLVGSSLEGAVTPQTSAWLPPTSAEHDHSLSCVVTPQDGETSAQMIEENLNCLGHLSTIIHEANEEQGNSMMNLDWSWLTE
BMX, sequence (P51813 whole entry): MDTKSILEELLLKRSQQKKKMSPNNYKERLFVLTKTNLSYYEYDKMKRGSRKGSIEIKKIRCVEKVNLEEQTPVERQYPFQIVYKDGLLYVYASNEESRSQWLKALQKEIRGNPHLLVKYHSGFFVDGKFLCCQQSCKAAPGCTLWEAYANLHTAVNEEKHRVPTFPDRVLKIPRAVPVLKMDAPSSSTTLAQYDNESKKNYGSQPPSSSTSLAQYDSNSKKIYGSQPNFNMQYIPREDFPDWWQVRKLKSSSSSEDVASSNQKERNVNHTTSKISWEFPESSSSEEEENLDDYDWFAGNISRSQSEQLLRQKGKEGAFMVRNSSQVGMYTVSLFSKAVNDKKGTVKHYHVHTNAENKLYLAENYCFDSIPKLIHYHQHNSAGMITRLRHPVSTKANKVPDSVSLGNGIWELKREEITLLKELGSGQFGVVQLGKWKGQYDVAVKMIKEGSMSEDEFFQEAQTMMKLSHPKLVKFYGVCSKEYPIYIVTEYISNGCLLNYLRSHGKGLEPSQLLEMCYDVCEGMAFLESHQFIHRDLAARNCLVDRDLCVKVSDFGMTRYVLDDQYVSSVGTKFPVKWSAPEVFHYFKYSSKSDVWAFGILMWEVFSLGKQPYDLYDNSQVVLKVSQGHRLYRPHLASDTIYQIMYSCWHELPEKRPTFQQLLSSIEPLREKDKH
AKT2, sequence (P31751 whole entry): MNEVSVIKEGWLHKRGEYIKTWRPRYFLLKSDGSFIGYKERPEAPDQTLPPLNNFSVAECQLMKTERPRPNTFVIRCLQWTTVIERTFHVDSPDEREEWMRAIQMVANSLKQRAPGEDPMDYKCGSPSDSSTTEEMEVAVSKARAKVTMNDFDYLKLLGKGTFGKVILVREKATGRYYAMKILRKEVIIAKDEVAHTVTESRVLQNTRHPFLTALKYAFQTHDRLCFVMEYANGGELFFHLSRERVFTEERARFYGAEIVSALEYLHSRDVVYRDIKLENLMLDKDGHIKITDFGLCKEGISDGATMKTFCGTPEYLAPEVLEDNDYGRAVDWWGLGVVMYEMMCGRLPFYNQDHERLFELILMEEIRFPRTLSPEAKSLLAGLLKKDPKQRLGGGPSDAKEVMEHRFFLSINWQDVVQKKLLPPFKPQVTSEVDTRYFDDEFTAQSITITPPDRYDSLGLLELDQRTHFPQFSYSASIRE
AMPK-alpha2, sequence (P54646 whole entry): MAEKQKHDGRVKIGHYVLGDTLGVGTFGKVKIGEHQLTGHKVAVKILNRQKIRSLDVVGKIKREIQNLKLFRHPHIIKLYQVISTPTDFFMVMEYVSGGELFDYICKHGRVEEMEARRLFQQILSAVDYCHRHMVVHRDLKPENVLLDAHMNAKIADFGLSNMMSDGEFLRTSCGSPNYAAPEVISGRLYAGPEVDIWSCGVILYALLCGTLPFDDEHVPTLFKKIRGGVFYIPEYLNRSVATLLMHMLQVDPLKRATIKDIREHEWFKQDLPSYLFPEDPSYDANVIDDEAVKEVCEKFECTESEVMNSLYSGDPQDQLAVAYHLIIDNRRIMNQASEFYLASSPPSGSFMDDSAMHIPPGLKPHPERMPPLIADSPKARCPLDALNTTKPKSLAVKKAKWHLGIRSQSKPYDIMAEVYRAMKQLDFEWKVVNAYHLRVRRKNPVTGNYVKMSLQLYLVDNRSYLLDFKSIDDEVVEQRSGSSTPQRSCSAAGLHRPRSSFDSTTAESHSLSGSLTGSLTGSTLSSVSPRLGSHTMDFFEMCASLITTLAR
DMPK2, sequence (Q6DT37 whole entry): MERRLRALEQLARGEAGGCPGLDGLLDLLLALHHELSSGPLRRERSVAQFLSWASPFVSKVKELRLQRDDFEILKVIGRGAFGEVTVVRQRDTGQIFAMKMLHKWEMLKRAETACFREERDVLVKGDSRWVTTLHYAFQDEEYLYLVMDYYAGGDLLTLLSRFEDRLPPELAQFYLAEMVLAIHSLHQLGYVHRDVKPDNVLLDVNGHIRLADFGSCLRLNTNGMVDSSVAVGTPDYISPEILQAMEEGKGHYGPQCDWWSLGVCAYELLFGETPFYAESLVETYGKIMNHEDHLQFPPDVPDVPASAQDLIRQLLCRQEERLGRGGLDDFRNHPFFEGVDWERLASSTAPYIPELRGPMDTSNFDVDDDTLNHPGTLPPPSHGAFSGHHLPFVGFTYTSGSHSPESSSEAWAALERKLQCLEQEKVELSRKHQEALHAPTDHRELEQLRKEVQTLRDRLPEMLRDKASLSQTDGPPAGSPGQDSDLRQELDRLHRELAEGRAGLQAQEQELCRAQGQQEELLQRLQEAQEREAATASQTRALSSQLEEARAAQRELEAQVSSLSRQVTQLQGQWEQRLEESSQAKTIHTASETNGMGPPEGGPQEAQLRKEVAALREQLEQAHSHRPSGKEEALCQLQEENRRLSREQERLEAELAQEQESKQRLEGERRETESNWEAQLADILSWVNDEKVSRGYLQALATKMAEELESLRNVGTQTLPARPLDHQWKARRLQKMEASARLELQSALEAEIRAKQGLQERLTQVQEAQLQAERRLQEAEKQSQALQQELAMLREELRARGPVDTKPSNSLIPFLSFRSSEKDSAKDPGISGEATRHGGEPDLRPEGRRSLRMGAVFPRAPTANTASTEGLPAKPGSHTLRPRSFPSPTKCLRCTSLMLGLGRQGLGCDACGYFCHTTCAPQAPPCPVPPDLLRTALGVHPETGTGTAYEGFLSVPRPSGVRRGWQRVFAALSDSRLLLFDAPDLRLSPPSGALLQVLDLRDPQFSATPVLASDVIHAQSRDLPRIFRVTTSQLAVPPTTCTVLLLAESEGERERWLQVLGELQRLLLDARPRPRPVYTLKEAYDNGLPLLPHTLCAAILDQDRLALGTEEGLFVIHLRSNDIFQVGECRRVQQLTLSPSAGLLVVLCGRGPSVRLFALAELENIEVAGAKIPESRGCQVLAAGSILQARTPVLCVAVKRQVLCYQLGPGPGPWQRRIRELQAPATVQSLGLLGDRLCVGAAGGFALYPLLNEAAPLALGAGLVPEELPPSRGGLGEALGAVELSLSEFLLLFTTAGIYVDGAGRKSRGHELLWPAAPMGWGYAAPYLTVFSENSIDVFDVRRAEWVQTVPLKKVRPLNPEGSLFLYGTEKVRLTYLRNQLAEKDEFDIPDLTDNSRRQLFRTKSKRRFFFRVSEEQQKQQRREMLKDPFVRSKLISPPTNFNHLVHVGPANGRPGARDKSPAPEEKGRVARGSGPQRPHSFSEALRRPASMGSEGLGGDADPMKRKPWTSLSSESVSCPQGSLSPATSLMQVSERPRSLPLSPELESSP

`CN1C(=O)[C@@H](N2CCc3c(nn(Cc4ccccc4)c3C(N)=O)C2=O)COc2cc(Cl)ccc21` [Compound 10, (S)-2-benzyl-6-(8-chloro-5-methyl-4-oxo-2,3,4,5-tetrahydrobenzo[b][1,4]oxazepin-3-yl)-7-oxo-4,5,6,7-tetrahydro-2H-pyrazolo[3,4-c]pyridine-3-carboxamide] was tested, and the remaining binding at 1 µM (AMPK-alpha2; 1000 nM) was 100%, the remaining binding at 0.1 µM (AMPK-alpha2; compound concentration 100 nM, Entrez PRKAA2) was 100% and the remaining binding at 1 µM (PIK3CD) was 83%. It also gave a remaining binding at 1 µM (BRAF) of 79%, a remaining binding at 1 µM (BUB1) of 78% and a remaining binding at 1 µM (FGFR4) of 84%. The remaining binding at 1 µM (BMX; 1000 nM) was 100%, the remaining binding at 0.1 µM (BMX; compound concentration 100 nM, Entrez BMX) was 100% and the remaining binding at 1 µM (AKT2; 1000 nM) was 100%. The remaining binding at 0.1 µM (AKT2; compound concentration 100 nM, Entrez AKT2) was 90%, the remaining binding at 1 µM (MYLK2) was 84% and the remaining binding at 1 µM (TNNI3K) was 80%. For the same molecule, the remaining binding at 0.1 µM (ULK2) was 80%, the remaining binding at 1 µM (ERBB3) was 85% and the remaining binding at 1 µM (RIOK1) was 85%. The remaining binding at 1 µM (DMPK2; 1000 nM) was 100%, the remaining binding at 0.1 µM (DMPK2; compound concentration 100 nM, Entrez CDC42BPG) was 92% and the remaining binding at 0.1 µM (ZAP70) was 84%. The remaining binding at 1 µM (EPHA1) was 87%, the remaining binding at 1 µM [1] was 85% and the remaining binding at 1 µM (ROCK2) was 74%. The remaining binding at 1 µM (TAOK2) was 90%, the remaining binding at 1 µM (IKK-alpha; 1000 nM) was 100% and the remaining binding at 0.1 µM (IKK-alpha; compound concentration 100 nM, Entrez CHUK) was 93%. For the same molecule, the remaining binding at 1 µM (ADCK4) was 80%, the remaining binding at 1 µM (AAK1) was 83% and the remaining binding at 1 µM (SGK2) was 95%. For the same molecule, the remaining binding at 0.1 µM (PKN2) was 90%, the remaining binding at 1 µM (LYN) was 77% and the remaining binding at 1 µM (EPHB3; 1000 nM) was 100%. For the same molecule, the remaining binding at 0.1 µM (EPHB3; compound concentration 100 nM, Entrez EPHB3) was 71%, the remaining binding at 1 µM (PAK3) was 74% and the remaining binding at 1 µM (MAST1) was 75%. For the same molecule, the remaining binding at 1 µM (PFTAIRE2) was 90%, the remaining binding at 1 µM (VEGFR2) was 92% and the remaining binding at 1 µM (YANK1) was 90%. It also gave a remaining binding at 1 µM (CSNK1G1) of 91%, a remaining binding at 1 µM (ACVR1B) of 86% and a remaining binding at 0.1 µM (NEK6) of 78%. For the same molecule, the remaining binding at 1 µM (MLK2) was 94%, the remaining binding at 1 µM (ERK2) was 95% and the remaining binding at 0.1 µM (RET) was 100%. It also gave a remaining binding at 1 µM (MYO3A) of 94% and a remaining binding at 0.1 µM (RIOK2) of 94%.
